Laboratory results taken from patent publication US20220242812A1, “SWELL1-LRRC8 COMPLEX MODULATORS” (Washington University, priority 2019, published 2022).
“Also recorded” adds a separate entry of the source.

Key:
[1] = target: T1, SWELL1-LRRC8 channel (ICl,SWELL) in HEK-293 cells (Homo sapiens, UniProt Q8IWT6); experiment: ICl,SWELL inhibition after hypotonic activation, patch-clamp in HEK-293 cells; format: cell-based
T1 construct: endogenous in cells; host or cells: HEK-293 (ATCC CRL-1573)
Procedure: Mean presented±SEM. Two-tailed unpaired t-test was used. *, **, and *** represents p<0.05, p<0.01 and p<0.001, respectively.
(§1) Patch-clamp recordings of β-cells and mature adipocytes were performed as described previously (Kang et al., 2018; Zhang et al., 2017). 3T3-F442A WT and KO preadipocytes were prepared as described in the Cell culture section above. For SWELL1 overexpression recordings, preadipocytes were first transduced with Ad5-CAG-LoxP-stop-LoxP-3×Flag-SWELL1 (MOI 12) in 2% FBS culture medium for two days and then overexpression induced by adding Ad5-CMV-Cre-wt-lRES-eGFP (MOI 10-12) in 2% FBS culture medium for two more days and changed to 10% FBS containing culture media and were selected based on GFP expression (˜2-3 days). For cell recordings, islets were transduced with Ad-RIP2-GFP and then dispersed after 48-72 hours for patch-clamp experiments. GFP+ cells marked β-cells selected for patch-clamp recordings. […] Recordings were measured using […] amplifier paired to a Digidata 1550 digitizer using pClamp 10.4 software. The extracellular buffer composition for hypotonic stimulation contains 90 mM NaCl, 2 mM CsCl, 1 mM MgCl, 1 mM CaCb, 10 mM HEPES, 10 mM Mannitol, pH 7.4 with NaOH (210 mOsm/kg). The extracellular isotonic buffer composition is same as above except for Mannitol concentration of 110 mM (300 mOsm/kg). The composition of intracellular buffer is 120 mM L-aspartic acid, 20 mM CsCl, 1 mM MgCl, 5 mM EGTA, 10 mM HEPES, 5 mM MgATP, 120 mM CsOH, 0.1 mM GTP, pH 7.2 with CsOH. All recordings were carried out at room temperature (RT) with HEK-293 cells, β-cells and 3T3-F442A cells performed in whole-cell configuration and human adipocytes in perforated-patch configuration, as previously described (Kang et al., 2018; Zhang et al., 2017).

[2] = target: T2, closed SWELL1-LRRC8 channel in HEK-293 cells (Homo sapiens, UniProt Q8IWT6); experiment: ICl,SWELL inhibition on application to the closed SWELL1-LRRC8 channel (30 min preincubation), HEK-293 cells; format: cell-based; details: 30 minutes prior to hypotonic activation
T2 construct: endogenous in cells; host or cells: HEK-293 (ATCC CRL-1573)
Procedure: as §1

[3] = system: endogenous SWELL1 plasma membrane localization; format: cell-based; details: 3T3-F442A preadipocytes, 1 or 10 μM 48 h, compared to vehicle or SN071
Procedure: 3T3-F442A preadipocytes (WT, KO) and differentiated adipocytes without or with SWELL1 overexpression (WT+SWELL1 O/E, KO+SWELL1 O/E) were prepared as described in the Cell culture section on collagen coated coverslips. […] Either anti-SWELL1 (1:400) or anti-Flag (1:1500, Sigma #F3165) antibody were added to the cells and incubated overnight at 4° C. The cells were then washed three times (1×PBS) prior and post to the addition of 1:1000 Alexa Flour 488/568 secondary antibody (anti-rabbit, #A11034 or anti-mouse, #A11004) for 1 hour at RT. Cells were counterstained with nuclear TO-PRO-3 (Life Technologies, #T3605) or DAPI (Invitrogen, #D1306) staining (1 μM) for 20 min followed by three washes with 1×PBS. Coverslips were further mounted on slides with Prolong Diamond anti-fading media. All images were captured using Zeiss LSM700/LSM510 confocal microscope with 63× objective (NA 1.4). SWELL1 membrane localization was quantified by stacking all the z-images and converting it into a binary image where the cytoplasmic intensity per unit area was subtracted from the total cell intensity per unit area using ImageJ software.

[4] = Microsomal metabolic stability assay; format: in vitro ADME; details: human liver microsomes; read-out: Human hepatic microsome stability Clintrinsic
Procedure: In vitro ADMET studies were performed at Charles River Laboratory as outlined below. For the Caco-2 permeability assay, the cells were cultured (DMEM, 10% FBS, 1% L-Glutamax and 1% PenStrep) for 21 days. HBSS was used as the transport buffer and the TEER measurements were taken before the start of the assay. Compounds were added apical side to determine apical to basolateral transport (A-B) and basal side to determine basolateral to apical transport (B-A). Samples (10 μL) were collected at time 0 and 2 h and diluted (5×) with transport buffer. After the quenching reaction, the samples were further diluted in MilliQ water for bioanalysis. […] The analyte levels (peak area ratios) were measured on apical (A) and basolateral (B) sides at To and T2h-A-B and B-A fluxes were calculated averaging 3 individual measurements. Apparent permeability (Papp, cm/sec) was calculated as dQ (flux)/(dt*area*concentration). The efflux ratio was calculated by Papp(B-A)/Papp(B-A). […] The supernatant was diluted in water and further analyzed in LC/MS autosampler. Half-life (T1/2) was calculated by the formula 0.692/slope where slope is ln(% remaining relative to Tzero vs time). Intrinsic clearance was calculated using the (CLn1)=T112*1/initial concentration*mg prep/g liver*g liver/kg body weight. […]

[5] = target: T3, CYP 2D6 (Homo sapiens, UniProt P10635); experiment: Cytochrome P450 inhibition assay, CYP 2D6; format: in vitro ADME; details: human liver microsomes
T3 construct: Human liver microsomes were diluted in Potassium phosphate buffer; tissue Charles River Laboratory (performed the study); host or cells: human liver microsomes

[6] = target: T4, CYP 3A4 (Homo sapiens, UniProt P08684); experiment: Cytochrome P450 inhibition assay, CYP 3A4; format: in vitro ADME; details: human liver microsomes
T4 construct: Human liver microsomes were diluted in Potassium phosphate buffer; tissue Charles River Laboratory (performed the study); host or cells: human liver microsomes

SMILES	On-target inhibition of ICl,SWELL ([1]; HEK-293 cells, hypotonic (210 mOsm), 10 and 7 μM, relative to SN-401)	Subsequent hypotonic SWELL1-LRRC8 activation ([2]; 250 nM)	Subsequent hypotonic SWELL1-LRRC8 activation ([2]; 1 μM)	Plasma membrane (PM) localization of endogenous SWELL1 [3]	CLint scaled [4]	IC50 [5]	IC50 [6]	Concentration required for inhibiting activated SWELL1-LRRC8 ([1]; upon hypotonic stimulation)
CCCCC1(C2CCCC2)Cc2cc(OCCCCCC(=O)O)c(Cl)c(Cl)c2C1=O (centres unmarked) [SN-406, 6-((2-butyl-6,7-dichloro-2-cyclopentyl-1-oxo-2,3-dihydro-1H-inden-5-yl)oxy)hexanoic acid]	maintained or enhanced; also recorded: increase	markedly suppresses and delays	markedly suppresses and delays	enhanced	46.4 mL/min/kg	> 10 µM	> 10 µM	
CCCCC1(C2CCCC2)Cc2cc(OCCCC(=O)O)c(Cl)c(Cl)c2C1=O (centres unmarked) [SN-401, 4-((2-butyl-6,7-dichloro-2-cyclopentyl-1-oxo-2,3-dihydro-1H-inden-5-yl)oxy)butanoic acid]		markedly suppresses and delays	markedly suppresses and delays	enhanced	72.7 mL/min/kg	> 10 µM	> 10 µM	~10 µM
